What was measured:
[1] = tested on: HCV replicon RNA (GenBank Accession No. AJ242654); assay: HCV Replicon Assay (replicon RNA reduction and/or Fluc reporter signal); type: cell-based, Hepatitis C virus; conditions: Hepatitis C virus, 72 h, replicon-containing cells cultured with test compound for up to 3 days
Procedure, shortened: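 Bicistronic replicon-containing cells cultured with compound for up to 3 days, with interferon as positive control. Inhibition quantified by replicon RNA reduction and/or Fluc reporter signal; IC50 values generally derived from replicon RNA reduction.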

## CCCn1c(-c2ccc(S(=O)(=O)N[C@@H](C)C(F)(F)F)cc2)c(C#N)c2cc(C)cnc21 [Cpd 485, 4-(3-cyano-5-methyl-1-propyl-1H-pyrrolo[2,3-b]pyridin-2-yl)-N-[(2S)-1,1,1-trifluoropropan-2-yl]benzenesulfonamide]
[1]
  IC50: < 0.5 µM
other
  melting point: 235 to 240 °C

## Cc1cnc2c(c1)c(C#N)c(-c1ccc(S(=O)(=O)N[C@@H](C)C(F)(F)F)cc1)n2C(C)C [Cpd 486, 4-[3-cyano-5-methyl-1-(propan-2-yl)-1H-pyrrolo[2,3-b]pyridin-2-yl]-N-[(2S)-1,1,1-trifluoropropan-2-yl]benzenesulfonamide]
[1]
  IC50: < 0.5 µM
other
  melting point: 197 to 202 °C

## Cc1cnc2c(c1)c(C#N)c(-c1ccc(S(=O)(=O)N[C@@H](C)C(F)(F)F)cc1)n2CC1CC1 [Cpd 487, 4-[3-cyano-1-(cyclopropylmethyl)-5-methyl-1H-pyrrolo[2,3-b]pyridin-2-yl]-N-[(2S)-1,1,1-trifluoropropan-2-yl]benzenesulfonamide]
[1]
  IC50: < 0.5 µM
other
  melting point: 175 to 181 °C

## Cc1cnc2c(c1)c(C#N)c(-c1ccc(S(=O)(=O)N[C@@H](C)C(F)(F)F)cc1)n2CC(C)C [Cpd 488, 4-[3-cyano-5-methyl-1-(2-methylpropyl)-1H-pyrrolo[2,3-b]pyridin-2-yl]-N-[(2S)-1,1,1-trifluoropropan-2-yl]benzenesulfonamide]
[1]
  IC50: < 0.5 µM
other
  melting point: 168 to 176 °C

## Cc1cnc2c(c1)c(C#N)c(-c1ccc(S(=O)(=O)N[C@@H](C)C(F)(F)F)cc1)n2CC1CCC1 [Cpd 489, 4-[3-cyano-1-(cyclobutylmethyl)-5-methyl-1H-pyrrolo[2,3-b]pyridin-2-yl]-N-[(2S)-1,1,1-trifluoropropan-2-yl]benzenesulfonamide]
[1]
  IC50: < 0.5 µM
other
  melting point: 154 to 158 °C

## Cc1cnc2c(c1)c(C#N)c(-c1ccc(S(=O)(=O)N[C@@H](C)C(F)(F)F)cn1)n2C [Cpd 490, 6-(3-cyano-1,5-dimethyl-1H-pyrrolo[2,3-b]pyridin-2-yl)-N-[(2S)-1,1,1-trifluoropropan-2-yl]pyridine-3-sulfonamide]
[1]
  IC50: 0.5 to 2 µM
other
  melting point: 182 to 186 °C

## CCn1c(-c2ccc(S(=O)(=O)N[C@@H](C)C(F)(F)F)cn2)c(C#N)c2cc(C)cnc21 [Cpd 491, 6-(3-cyano-1-ethyl-5-methyl-1H-pyrrolo[2,3-b]pyridin-2-yl)-N-[(2S)-1,1,1-trifluoropropan-2-yl]pyridine-3-sulfonamide]
[1]
  IC50: < 0.5 µM
other
  melting point: 168 to 171 °C

## CCCn1c(-c2ccc(S(=O)(=O)N[C@@H](C)C(F)(F)F)cn2)c(C#N)c2cc(C)cnc21 [Cpd 492, 6-(3-cyano-5-methyl-1-propyl-1H-pyrrolo[2,3-b]pyridin-2-yl)-N-[(2S)-1,1,1-trifluoropropan-2-yl]pyridine-3-sulfonamide]
[1]
  IC50: < 0.5 µM
other
  melting point: 145 to 149 °C

## Cc1cnc2c(c1)c(C#N)c(-c1ccc(S(=O)(=O)N[C@@H](C)C(F)(F)F)cn1)n2C(C)C [Cpd 493, 6-[3-cyano-5-methyl-1-(propan-2-yl)-1H-pyrrolo[2,3-b]pyridin-2-yl]-N-[(2S)-1,1,1-trifluoropropan-2-yl]pyridine-3-sulfonamide]
[1]
  IC50: < 0.5 µM
other
  melting point: 157 to 162 °C

## Cc1cnc2c(c1)c(C#N)c(-c1ccc(S(=O)(=O)N[C@@H](C)C(F)(F)F)cn1)n2CC1CC1 [Cpd 494, 6-[3-cyano-1-(cyclopropylmethyl)-5-methyl-1H-pyrrolo[2,3-b]pyridin-2-yl]-N-[(2S)-1,1,1-trifluoropropan-2-yl]pyridine-3-sulfonamide]
[1]
  IC50: < 0.5 µM
other
  melting point: 198 to 204 °C

## Cc1cnc2c(c1)c(C#N)c(-c1ccc(S(=O)(=O)N[C@@H](C)C(F)(F)F)cn1)n2CC(C)C [Cpd 495, 6-[3-cyano-5-methyl-1-(2-methylpropyl)-1H-pyrrolo[2,3-b]pyridin-2-yl]-N-[(2S)-1,1,1-trifluoropropan-2-yl]pyridine-3-sulfonamide]
[1]
  IC50: < 0.5 µM
other
  melting point: 125 to 130 °C

## Cc1cnc2c(c1)c(C#N)c(-c1ccc(S(=O)(=O)N[C@@H](C)C(F)(F)F)cn1)n2CC1CCC1 [Cpd 496, 6-[3-cyano-1-(cyclobutylmethyl)-5-methyl-1H-pyrrolo[2,3-b]pyridin-2-yl]-N-[(2S)-1,1,1-trifluoropropan-2-yl]pyridine-3-sulfonamide]
[1]
  IC50: < 0.5 µM
other
  melting point: 135 to 139 °C

## C[C@H](NS(=O)(=O)c1ccc(-c2c(C#N)c3cc(N(C)C)cnc3n2C2CCC2)nc1)C(F)(F)F [Cpd 497, 6-[3-cyano-1-cyclobutyl-5-(dimethylamino)-1H-pyrrolo[2,3-b]pyridin-2-yl]-N-[(2S)-1,1,1-trifluoropropan-2-yl]pyridine-3-sulfonamide]
[1]
  IC50: < 0.5 µM
other
  melting point: 183 to 185 °C

## CN(C)c1cnc2c(c1)c(C#N)c(-c1ccc(NS(=O)(=O)C(C)(C)C)cc1)n2C1CCC1 [Cpd 498, N-{4-[3-cyano-1-cyclobutyl-5-(dimethylamino)-1H-pyrrolo[2,3-b]pyridin-2-yl]phenyl}-2-methylpropane-2-sulfonamide]
[1]
  IC50: < 0.5 µM
other
  melting point: 200 to 202 °C

## CN(C)c1cnc2c(c1)c(C#N)c(-c1ccc(NS(=O)(=O)C3(C)CC3)cc1)n2C1CCC1 [Cpd 499, N-{4-[3-cyano-1-cyclobutyl-5-(dimethylamino)-1H-pyrrolo[2,3-b]pyridin-2-yl]phenyl}-1-methylcyclopropanesulfonamide]
[1]
  IC50: < 0.5 µM
other
  melting point: 209 to 213 °C

## C[C@H](NS(=O)(=O)c1ccc(-c2c(C#N)c3cc(N(C)C)cnc3n2C2CCC2)cc1)C(F)(F)F [Cpd 500, 4-[3-cyano-1-cyclobutyl-5-(dimethylamino)-1H-pyrrolo[2,3-b]pyridin-2-yl]-N-[(2S)-1,1,1-trifluoropropan-2-yl]benzenesulfonamide]
[1]
  IC50: < 0.5 µM
other
  melting point: 198 to 200 °C

## Cc1cnc2c(c1)c(C#N)c(-c1ccc(S(=O)(=O)N[C@@H](C)C(F)(F)F)cn1)n2-c1ccccc1F [Cpd 501, 6-[3-cyano-1-(2-fluorophenyl)-5-methyl-1H-pyrrolo[2,3-b]pyridin-2-yl]-N-[(2S)-1,1,1-trifluoropropan-2-yl]pyridine-3-sulfonamide]
[1]
  IC50: < 0.5 µM
other
  melting point: 128 °C (dec.)

## Cc1cnc2c(c1)c(C#N)c(-c1ccc(S(=O)(=O)N[C@@H](C)C(F)(F)F)cn1)n2-c1cccc(F)c1 [Cpd 502, 6-[3-cyano-1-(3-fluorophenyl)-5-methyl-1H-pyrrolo[2,3-b]pyridin-2-yl]-N-[(2S)-1,1,1-trifluoropropan-2-yl]pyridine-3-sulfonamide]
[1]
  IC50: < 0.5 µM
other
  melting point: 238 to 240 °C

## Cc1cnc2c(c1)c(C#N)c(-c1ccc(S(=O)(=O)N[C@@H](C)C(F)(F)F)cn1)n2-c1ccc(F)cc1 [Cpd 503, 6-[3-cyano-1-(4-fluorophenyl)-5-methyl-1H-pyrrolo[2,3-b]pyridin-2-yl]-N-[(2S)-1,1,1-trifluoropropan-2-yl]pyridine-3-sulfonamide]
[1]
  IC50: < 0.5 µM
other
  melting point: 253 to 254 °C

## Cc1cnc2c(c1)c(C#N)c(-c1ccc(S(=O)(=O)N[C@@H](C)C(F)(F)F)cn1)n2-c1cc(F)ccc1F [Cpd 504, 6-[3-cyano-1-(2,5-difluorophenyl)-5-methyl-1H-pyrrolo[2,3-b]pyridin-2-yl]-N-[(2S)-1,1,1-trifluoropropan-2-yl]pyridine-3-sulfonamide]
[1]
  IC50: < 0.5 µM
other
  melting point: 232 to 234 °C

## Cc1cnc2c(c1)c(C#N)c(-c1ccc(S(=O)(=O)N[C@@H](C)C(F)(F)F)cn1)n2-c1ccc(F)c(F)c1 [Cpd 505, 6-[3-cyano-1-(3,4-difluorophenyl)-5-methyl-1H-pyrrolo[2,3-b]pyridin-2-yl]-N-[(2S)-1,1,1-trifluoropropan-2-yl]pyridine-3-sulfonamide]
[1]
  IC50: < 0.5 µM
other
  melting point: 250 to 252 °C

## Cc1cnc2c(c1)c(C#N)c(-c1ccc(S(=O)(=O)N[C@@H](C)C(F)(F)F)cn1)n2-c1cc(F)cc(F)c1 [Cpd 506, 6-[3-cyano-1-(3,5-difluorophenyl)-5-methyl-1H-pyrrolo[2,3-b]pyridin-2-yl]-N-[(2S)-1,1,1-trifluoropropan-2-yl]pyridine-3-sulfonamide]
[1]
  IC50: < 0.5 µM
other
  melting point: 260 to 262 °C

## Cc1cnc2c(c1)c(C#N)c(-c1ccc(S(=O)(=O)N[C@@H](C)C(F)(F)F)cn1)n2-c1cscn1 [Cpd 507, 6-[3-cyano-5-methyl-1-(1,3-thiazol-4-yl)-1H-pyrrolo[2,3-b]pyridin-2-yl]-N-[(2S)-1,1,1-trifluoropropan-2-yl]pyridine-3-sulfonamide]
[1]
  IC50: < 0.5 µM
other
  melting point: 186 to 188 °C

## Cc1cnc2c(c1)c(C#N)c(-c1ccc(S(=O)(=O)N[C@@H](C)C(F)(F)F)cn1)n2-c1cc(C#N)ncn1 [Cpd 508, 6-[3-cyano-1-(6-cyanopyrimidin-4-yl)-5-methyl-1H-pyrrolo[2,3-b]pyridin-2-yl]-N-[(2S)-1,1,1-trifluoropropan-2-yl]pyridine-3-sulfonamide]
[1]
  IC50: < 0.5 µM
other
  melting point: 120 to 122 °C

## CCc1cnc2c(c1)c(C#N)c(-c1ccc(S(=O)(=O)N[C@@H](C)C(F)(F)F)cn1)n2-c1cccs1 [Cpd 509, 6-[3-cyano-5-ethyl-1-(thiophen-2-yl)-1H-pyrrolo[2,3-b]pyridin-2-yl]-N-[(2S)-1,1,1-trifluoropropan-2-yl]pyridine-3-sulfonamide]
[1]
  IC50: < 0.5 µM
other
  melting point: 169 to 171 °C

## CCc1cnc2c(c1)c(C#N)c(-c1ccc(S(=O)(=O)N[C@@H](C)C(F)(F)F)cn1)n2-c1ccc(F)cc1 [Cpd 510, 6-[3-cyano-5-ethyl-1-(4-fluorophenyl)-1H-pyrrolo[2,3-b]pyridin-2-yl]-N-[(2S)-1,1,1-trifluoropropan-2-yl]pyridine-3-sulfonamide]
[1]
  IC50: < 0.5 µM
other
  melting point: 212 to 214 °C

## CCc1cnc2c(c1)c(C#N)c(-c1ccc(S(=O)(=O)N[C@@H](C)C(F)(F)F)cn1)n2-c1cccc(F)c1 [Cpd 511, 6-[3-cyano-5-ethyl-1-(3-fluorophenyl)-1H-pyrrolo[2,3-b]pyridin-2-yl]-N-[(2S)-1,1,1-trifluoropropan-2-yl]pyridine-3-sulfonamide]
[1]
  IC50: < 0.5 µM
other
  melting point: 195 to 197 °C

From patent US9593108B2, “Compounds and methods for antiviral treatment” (PTC Therapeutics, Inc., priority 2009, dated 2017)
